Data: patent US11377442B2, “Small molecule agonists and antagonists of NR2F6 activity” (ZANDER THERAPEUTICS, INC., priority 2016, dated 2022)
Like-named read-outs stand apart in the source and are kept apart here. Each block holds one molecule with its values, some of them ahead of it.

Legend:
Type in all cases: cell-based
[1] = biological target: T1, NR2F6 (Homo sapiens, UniProt P10588); assay: NR2F6 agonist screening, Firefly signal cmpd/DMSO
T1 construct: expressed in transfected cells; also transient transfection
T1 sequence (P10588 1-404): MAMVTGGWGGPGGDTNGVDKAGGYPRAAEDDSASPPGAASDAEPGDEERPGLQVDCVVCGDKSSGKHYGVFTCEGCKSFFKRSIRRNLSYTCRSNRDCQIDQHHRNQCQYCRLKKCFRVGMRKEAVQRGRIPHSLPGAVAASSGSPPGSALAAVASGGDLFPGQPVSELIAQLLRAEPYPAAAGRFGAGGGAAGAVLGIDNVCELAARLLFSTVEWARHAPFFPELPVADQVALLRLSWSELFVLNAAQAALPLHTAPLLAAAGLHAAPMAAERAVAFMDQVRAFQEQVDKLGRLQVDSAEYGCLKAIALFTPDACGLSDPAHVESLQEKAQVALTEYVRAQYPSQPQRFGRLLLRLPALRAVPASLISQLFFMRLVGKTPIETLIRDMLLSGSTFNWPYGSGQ

[2] = test system: Renilla; assay: Renilla signal in NR2F6 agonist screening, cmpd/DMSO; conditions: for fold induction at 0.5 µM / fold induction at 2 µM / fold induction at 10 µM / fold induction at 40 µM: Renilla; for Renilla F4, cmpd/DMSO (mean): Table 15
[3] = test system: HEK293 pGL4; assay: Firefly_pGL signal, cmpd/DMSO (pGL4 control cells); conditions: Homo sapiens
[4] = biological target: T2, NR2F6 LBD (Homo sapiens, UniProt P10588); assay: NR2F6 LBD transient transfection
T2 construct: expressed in transfected cells
T2 sequence (P10588 165-393 limits assumed): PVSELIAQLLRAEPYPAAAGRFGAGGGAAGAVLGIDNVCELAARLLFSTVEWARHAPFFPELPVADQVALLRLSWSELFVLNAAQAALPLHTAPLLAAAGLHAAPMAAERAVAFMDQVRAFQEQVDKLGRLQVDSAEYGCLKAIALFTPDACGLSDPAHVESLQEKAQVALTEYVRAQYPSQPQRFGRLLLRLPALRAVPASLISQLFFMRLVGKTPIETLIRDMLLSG
Outline: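 LBD-transfected cells treated at 40, 10, 2 and 0.5 μM (4 replicates); cytotoxicity measured in parallel, normalized to DMSO (0%) and zero signal (100%). Higher concentrations excluded where signal loss reflected toxicity.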

[5] = test system: Renilla; assay: Renilla signal, LBD, cmpd/DMSO (NR2F6 LBD transfected cells)
[6] = biological target: T3, ERα (Homo sapiens, UniProt P03372); assay: Counterscreening, Firefly signal with ERα transient transfection (Firefly_ERa); conditions: Table 15; 10 uM
T3 construct: expressed in transfected cells
T3 sequence (P03372 1-595): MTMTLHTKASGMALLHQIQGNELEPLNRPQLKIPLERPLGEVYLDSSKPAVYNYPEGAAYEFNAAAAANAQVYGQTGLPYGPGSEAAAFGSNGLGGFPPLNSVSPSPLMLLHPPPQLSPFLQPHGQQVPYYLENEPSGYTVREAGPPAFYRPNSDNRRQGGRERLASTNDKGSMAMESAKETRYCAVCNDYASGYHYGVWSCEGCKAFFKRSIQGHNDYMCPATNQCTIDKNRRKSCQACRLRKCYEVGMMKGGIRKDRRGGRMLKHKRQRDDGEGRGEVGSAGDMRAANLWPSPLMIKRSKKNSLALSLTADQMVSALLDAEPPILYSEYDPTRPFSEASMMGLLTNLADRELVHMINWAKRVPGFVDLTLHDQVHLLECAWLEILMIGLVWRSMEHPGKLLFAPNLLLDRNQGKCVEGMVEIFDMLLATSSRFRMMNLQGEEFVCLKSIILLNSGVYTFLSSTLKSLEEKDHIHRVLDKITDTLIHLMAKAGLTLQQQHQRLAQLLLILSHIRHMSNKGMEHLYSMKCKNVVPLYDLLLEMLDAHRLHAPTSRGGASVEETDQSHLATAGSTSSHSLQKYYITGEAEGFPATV
Description: The methodology for screening candidate compounds as NR2F6 agonists was as follows: For primary screening, hit criteria was ACT %>DMSO control+5*SD (DSO control) at 10 μM, or any compound with S/B>2. For rescreening, hit criteria was ACT %>DMSO control+3*SD (DSO control) in each replicate at 10 μM. For counterscreening, hit criteria was mean ACT<DMSO control+3*SD (DMSO control) with ERα transient transfection in duplicate at 10 μM.

[7] = test system: Renilla_ERa; assay: Renilla signal in ERα counterscreen (Renilla_ERa); conditions: Table 15
[8] = biological target: T3, ERα; assay: Counterscreening, Firefly signal with ERα transient transfection (Firefly_ERa); conditions: Table 15

Firefly F4, cmpd/DMSO (mean) ([1]; 0.5 uM): 1.7 | Firefly F4, cmpd/DMSO (mean) ([1]; 2 uM): 2.4 | Firefly F4, cmpd/DMSO (mean) ([1]; 10 uM): 1.9 | Firefly F4, cmpd/DMSO (mean) ([1]; 40 uM): 2.8 | F4, Firefly/Renilla for S/B(F4) > 3 ([1]; 1% FBS, 40 uM): 1.9 | Firefly, F4/pGL4 for S/B(F4) > 3 ([1]; 1% FBS, 40 uM): 3.0 | F4, Firefly/Renilla for S/B(F4) > 3 ([1]; 10% FBS, 40 uM): 1.9 | Firefly, F4/pGL4 for S/B(F4) > 3 ([1]; 10% FBS, 40 uM): 2.3 | Firefly, F4, 1% FBS, cmpd/DMSO (mean) ([1]; 1% FBS, 0.5 uM): 1.2 | Firefly, F4, 1% FBS, cmpd/DMSO (mean) ([1]; 1% FBS, 2 uM): 1.6 | Firefly, F4, 1% FBS, cmpd/DMSO (mean) ([1]; 1% FBS, 10 uM): 1.1 | Firefly, F4, 1% FBS, cmpd/DMSO (mean) ([1]; 1% FBS, 40 uM): 3.3 | Firefly, F4, 10% FBS, cmpd/DMSO (mean) ([1]; 10% FBS, 0.5 uM): 1.0 | Firefly, F4, 10% FBS, cmpd/DMSO (mean) ([1]; 10% FBS, 2 uM): 0.7 | Firefly, F4, 10% FBS, cmpd/DMSO (mean) ([1]; 10% FBS, 10 uM): 1.8 | Firefly, F4, 10% FBS, cmpd/DMSO (mean) ([1]; 10% FBS, 40 uM): 3.7 | Firefly LBD, cmpd/DMSO (mean) ([4]; 0.5 uM): 1.4 | Firefly LBD, cmpd/DMSO (mean) ([4]; 2 uM): 1.7 | Firefly LBD, cmpd/DMSO (mean) ([4]; 10 uM): 1.6 | Firefly LBD, cmpd/DMSO (mean) ([4]; 40 uM): 2.8
Structure (SMILES): O=S1(=O)C[C@H](NCc2ccco2)[C@@H](S(=O)(=O)c2cccs2)C1 [Compound D135]
fold induction at 0.5 µM ([2]; read-out: Renilla F4, cmpd/DMSO (mean)): 0.9 | fold induction at 2 µM ([2]; 2 uM, read-out: Renilla F4, cmpd/DMSO (mean)): 1.2 | fold induction at 10 µM ([2]; 10 uM, read-out: Renilla F4, cmpd/DMSO (mean)): 1 | fold induction at 40 µM ([2]; 40 uM, read-out: Renilla F4, cmpd/DMSO (mean)): 1.3 | fold induction at 0.5 µM ([2]; F4, 1% FBS, read-out: Renilla, F4, 1% FBS, cmpd/DMSO (mean)): 1 | fold induction at 2 µM ([2]; F4, 1% FBS, 2 uM, read-out: Renilla, F4, 1% FBS, cmpd/DMSO (mean)): 1.3 | fold induction at 10 µM ([2]; F4, 1% FBS, 10 uM, read-out: Renilla, F4, 1% FBS, cmpd/DMSO (mean)): 1.2 | fold induction at 40 µM ([2]; F4, 1% FBS, 40 uM, read-out: Renilla, F4, 1% FBS, cmpd/DMSO (mean)): 1.7 | fold induction at 0.5 µM ([2]; F4, 10% FBS, read-out: Renilla, F4, 10% FBS, cmpd/DMSO (mean)): 1 | fold induction at 2 µM ([2]; F4, 10% FBS, 2 uM, read-out: Renilla, F4, 10% FBS, cmpd/DMSO (mean)): 1.1 | fold induction at 10 µM ([2]; F4, 10% FBS, 10 uM, read-out: Renilla, F4, 10% FBS, cmpd/DMSO (mean)): 1.1 | fold induction at 40 µM ([2]; F4, 10% FBS, 40 uM, read-out: Renilla, F4, 10% FBS, cmpd/DMSO (mean)): 1.9 | fold induction at 0.5 µM ([3]; HEK293, 0.5 uM, read-out: Firefly pGL4, cmpd/DMSO (mean)): 1 | fold induction at 2 µM ([3]; HEK293, 2 uM, read-out: Firefly pGL4, cmpd/DMSO (mean)): 1.6 | fold induction at 10 µM ([3]; HEK293, 10 uM, read-out: Firefly pGL4, cmpd/DMSO (mean)): 1.4 | fold induction at 40 µM ([3]; HEK293, 40 uM, read-out: Firefly pGL4, cmpd/DMSO (mean)): 1.3 | fold induction at 0.5 µM ([3]; HEK293, pGL4, 1% FBS, 0.5 uM, read-out: Firefly, pGL4, 1% FBS, cmpd/DMSO (mean)): 1 | fold induction at 2 µM ([3]; HEK293, pGL4, 1% FBS, 2 uM, read-out: Firefly, pGL4, 1% FBS, cmpd/DMSO (mean)): 1 | fold induction at 10 µM ([3]; HEK293, pGL4, 1% FBS, 10 uM, read-out: Firefly, pGL4, 1% FBS, cmpd/DMSO (mean)): 0.8 | fold induction at 40 µM ([3]; HEK293, pGL4, 1% FBS, 40 uM, read-out: Firefly, pGL4, 1% FBS, cmpd/DMSO (mean)): 1.1 | fold induction at 0.5 µM ([3]; HEK293, pGL4, 10% FBS, 0.5 uM, read-out: Firefly, pGL4, 10% FBS, cmpd/DMSO (mean)): 0.9 | fold induction at 2 µM ([3]; HEK293, pGL4, 10% FBS, 2 uM, read-out: Firefly, pGL4, 10% FBS, cmpd/DMSO (mean)): 1.1 | fold induction at 10 µM ([3]; HEK293, pGL4, 10% FBS, 10 uM, read-out: Firefly, pGL4, 10% FBS, cmpd/DMSO (mean)): 1.7 | fold induction at 40 µM ([3]; HEK293, pGL4, 10% FBS, 40 uM, read-out: Firefly, pGL4, 10% FBS, cmpd/DMSO (mean)): 1.6 | Renilla LBD, cmpd/DMSO (mean) ([5]; 0.5 uM): 0.9 | Renilla LBD, cmpd/DMSO (mean) ([5]; 2 uM): 0.9 | Renilla LBD, cmpd/DMSO (mean) ([5]; 10 uM): 0.8 | Renilla LBD, cmpd/DMSO (mean) ([5]; 40 uM): 0.9

Structure (SMILES): CS(=O)(=O)Nc1ccc([N+](=O)[O-])c2nonc12 [Compound Z13]
Firefly F4, cmpd/DMSO (mean) ([1]; Table 15, 2 uM): 1.0 | Firefly F4, cmpd/DMSO (mean) ([1]; Table 15, 10 uM): 0.9 | Firefly F4, cmpd/DMSO (mean) ([1]; Table 15, 40 uM): 1.6 | Firefly ERalpha transient, cmpd/DMSO (mean) [6]: 1.7 | Renilla F4, cmpd/DMSO (mean) ([2]; 2 uM): 0.8 | Renilla F4, cmpd/DMSO (mean) ([2]; 10 uM): 0.7 | Renilla F4, cmpd/DMSO (mean) ([2]; 40 uM): 0.4 | Renilla ERalpha transient, cmpd/DMSO (mean) ([7]; 2 uM): 0.8 | Renilla ERalpha transient, cmpd/DMSO (mean) ([7]; 10 uM): 0.6 | Renilla ERalpha transient, cmpd/DMSO (mean) ([7]; 40 uM): 0.4 | Firefly ERalpha transient, cmpd/DMSO (mean) ([8]; 2 uM): 1.2 | Firefly ERalpha transient, cmpd/DMSO (mean) ([8]; 40 uM): 1.1
